Test system: TPM3-NTRK1-wt IC50 / primary target (e.g. CD74-ROS1-wt) IC50, Ba/F3 cells
Assay: Cell assay TRKA selectivity (TRKA potency divided by primary target potency)
Type: cell-based
Conditions: for TPM3-NTRK1-wt/CD74-ROS1-G2032R: TRKA selectivity ratio: TPM3-NTRK1-wt IC50 / CD74-ROS1-G2032R IC50, Ba/F3 cells; for TPM3-NTRK1-wt/CD74-ROS1-wt: TRKA selectivity ratio: TPM3-NTRK1-wt IC50 / CD74-ROS1-wt IC50, Ba/F3 cells; for TPM3-NTRK1-wt/EML4-ALK-L1196M-G1202R: TRKA selectivity ratio: TPM3-NTRK1-wt IC50 / EML4-ALK-L1196M-G1202R IC50, Ba/F3 cells; for TPM3-NTRK1-wt/EML4-ALK-wt: TRKA selectivity ratio: TPM3-NTRK1-wt IC50 / EML4-ALK-wt IC50, Ba/F3 cells
From the text: Genes encoding CD74-ROS1 wild-type (wt), CD74-ROS1 G2032R, CD74-ROS1 S1986F, CD74-ROS1 L2026M, CD74-ROS1 D2033N, EML4-ALK wt (variant 1), EML4-ALK G1202R (variant 1), EML4-ALK L1196M/G1202R (variant 1), EML4-ALK G1202R/G1269A (variant 1), EML4-ALK G1202R/L1198F (variant 1), and TPM3-TRKA were synthesized at GeneRay, cloned into the retroviral construct pMSCV-puro (Biovector), and packaged into retroviral particles. The virus was used to infect Ba/F3 cells (RIKEN) at multiplicity of infection=1 for 1 day. Infected cells were rescued in media (RPMI-1640 with 10% fetal bovine serum and 1% streptomycin and penicillin) supplemented with mouse IL-3 (10 ng/mL) for 2 days, and stable cell lines were selected by IL-3 withdrawal and puromycin (0.8 μg/mL) for 7 days. Monoclones were selected by single-cell dilution in IL-3-free medium containing puromycin (0.8 μg/mL). Transformation of desired genes was confirmed by Sanger sequencing and western blot using the following antibodies: ROS1 (CST #3287), ALK (CST #3633), and pan-TRK (Abcam #76291).
Stable cells were plated at 1,000 cells/well (40 μL) in a 384-well plate for 1 day. Test compounds (40 nL) were then added in a 3-fold dilution series using the TECAN EVO200 liquid handler and incubated for 72 hours. Plates were equilibrated at room temperature for 15 minutes followed by addition of 40 μL CellTiter-Glo reagent (Promega). Luminescence was measured on a plate reader. Half-maximal inhibitory concentration (IC50) was calculated from percent inhibition and inhibitor concentration using four-parameter logistic regression. […] Exemplary data is given in Table 4 (nd is not determined).
TRKA selectivity was calculated by dividing a compound's TRKA potency by its primary target potency (e.g. TPM3-NTRK1-wt IC50/CD74-ROS1-wt IC50). Compound selectivity can be interpreted by binning ratio values: bin A for very high selectivity, ratio>30-fold; bin B for high selectivity, ratio>10-fold; bin C for moderate selectivity, ratio≥1; and bin D for low selectivity, ratio<1. […] (nd=not determined).

C[C@H]1Oc2cc(cnc2N)-c2c(C#N)ncn2Cc2cn(C)nc2-c2ccc(F)cc21 [Example 13, (19R)-22-amino-16-fluoro-10,19-dimethyl-20-oxa-4,6,10,11,23-pentaazapentacyclo[19.3.1.0^2,^6.0^8,^12.0^13,^18]pentacosa-1(24),2,4,8,11,13,15,17,21(25),22-decaene-3-carbonitrile]
TPM3-NTRK1-wt/CD74-ROS1-G2032R: A (bin A for very high selectivity, ratio>30-fold) | TPM3-NTRK1-wt/CD74-ROS1-wt: A (bin A for very high selectivity, ratio>30-fold) | TPM3-NTRK1-wt/EML4-ALK-L1196M-G1202R: A (bin A for very high selectivity, ratio>30-fold) | TPM3-NTRK1-wt/EML4-ALK-wt: A (bin A for very high selectivity, ratio>30-fold)

C[C@H]1Oc2cc(cnc2N)-c2c(C#N)cnn2Cc2cccnc2-c2ccc(F)cc21 [Example 14, (20R)-23-amino-17-fluoro-20-methyl-21-oxa-5,6,12,24-tetraazapentacyclo[20.3.1.0^2,^6.0^8,^13.0^14,^19]hexacosa-1(25),2,4,8(13),9,11,14,16,18,22(26),23-undecaene-3-carbonitrile]
TPM3-NTRK1-wt/CD74-ROS1-G2032R: B (bin B for high selectivity, ratio>10-fold) | TPM3-NTRK1-wt/CD74-ROS1-wt: A (bin A for very high selectivity, ratio>30-fold) | TPM3-NTRK1-wt/EML4-ALK-L1196M-G1202R: C (bin C for moderate selectivity, ratio≥1) | TPM3-NTRK1-wt/EML4-ALK-wt: A (bin A for very high selectivity, ratio>30-fold)

C[C@H]1Oc2cc(cnc2N)-c2c(C#N)noc2Cc2cn(C)nc2-c2ccc(F)cc21 [Example 15, (19R)-22-amino-16-fluoro-10,19-dimethyl-5,20-dioxa-4,10,11,23-tetraazapentacyclo[19.3.1.0^2,^6.0^8,^12.0^13,^18]pentacosa-1(24),2(6),3,8,11,13(18),14,16,21(25),22-decaene-3-carbonitrile]
TPM3-NTRK1-wt/CD74-ROS1-G2032R: A (bin A for very high selectivity, ratio>30-fold) | TPM3-NTRK1-wt/CD74-ROS1-wt: A (bin A for very high selectivity, ratio>30-fold) | TPM3-NTRK1-wt/EML4-ALK-L1196M-G1202R: B (bin B for high selectivity, ratio>10-fold) | TPM3-NTRK1-wt/EML4-ALK-wt: A (bin A for very high selectivity, ratio>30-fold)

CCc1nnn2c1-c1cnc(N)c(c1)O[C@H](C)c1cc(F)ccc1-c1ncc(F)cc1C2 [Example 16, (20R)-3-ethyl-10,17-difluoro-20-methyl-21-oxa-4,5,6,12,24-pentaazapentacyclo[20.3.1.0^2,^6.0^8,^13.0^14,^19]hexacosa-1(25),2,4,8(13),9,11,14,16,18,22(26),23-undecaen-23-amine]
TPM3-NTRK1-wt/CD74-ROS1-G2032R: B (bin B for high selectivity, ratio>10-fold) | TPM3-NTRK1-wt/CD74-ROS1-wt: A (bin A for very high selectivity, ratio>30-fold) | TPM3-NTRK1-wt/EML4-ALK-L1196M-G1202R: C (bin C for moderate selectivity, ratio≥1) | TPM3-NTRK1-wt/EML4-ALK-wt: B (bin B for high selectivity, ratio>10-fold)

C[C@H]1Oc2cc(cnc2N)-c2c(C(F)F)cnn2Cc2cc(F)cnc2-c2ccc(F)cc21 [Example 17, (20R)-3-(difluoromethyl)-10,17-difluoro-20-methyl-21-oxa-5,6,12,24-tetraazapentacyclo[20.3.1.0^2,^6.0^8,^13.0^14,^19]hexacosa-1(25),2,4,8(13),9,11,14,16,18,22(26),23-undecaen-23-amine]
TPM3-NTRK1-wt/CD74-ROS1-G2032R: B (bin B for high selectivity, ratio>10-fold) | TPM3-NTRK1-wt/CD74-ROS1-wt: A (bin A for very high selectivity, ratio>30-fold) | TPM3-NTRK1-wt/EML4-ALK-L1196M-G1202R: D (bin D for low selectivity, ratio<1) | TPM3-NTRK1-wt/EML4-ALK-wt: B (bin B for high selectivity, ratio>10-fold)

Cc1nc(C#N)c2n1Cc1cccnc1-c1ccc(F)cc1[C@@H](C)Oc1cc-2cnc1N [Example 18, (20R)-23-amino-17-fluoro-5,20-dimethyl-21-oxa-4,6,12,24-tetraazapentacyclo[20.3.1.0^2,^6.0^8,^13.0^14,^19]hexacosa-1(25),2,4,8(13),9,11,14,16,18,22(26),23-undecaene-3-carbonitrile]
TPM3-NTRK1-wt/CD74-ROS1-G2032R: A (bin A for very high selectivity, ratio>30-fold) | TPM3-NTRK1-wt/CD74-ROS1-wt: A (bin A for very high selectivity, ratio>30-fold) | TPM3-NTRK1-wt/EML4-ALK-L1196M-G1202R: A (bin A for very high selectivity, ratio>30-fold) | TPM3-NTRK1-wt/EML4-ALK-wt: A (bin A for very high selectivity, ratio>30-fold)

CCc1noc2c1-c1cnc(N)c(c1)O[C@H](C)c1cc(F)ccc1-c1nn(C)cc1C2 [Example 19, (19R)-3-ethyl-16-fluoro-10,19-dimethyl-5,20-dioxa-4,10,11,23-tetraazapentacyclo[19.3.1.0^2,^6.0^8,^12.0^13,^18]pentacosa-1(24),2(6),3,8,11,13,15,17,21(25),22-decaen-22-amine]
TPM3-NTRK1-wt/CD74-ROS1-G2032R: A (bin A for very high selectivity, ratio>30-fold) | TPM3-NTRK1-wt/CD74-ROS1-wt: A (bin A for very high selectivity, ratio>30-fold) | TPM3-NTRK1-wt/EML4-ALK-L1196M-G1202R: C (bin C for moderate selectivity, ratio≥1) | TPM3-NTRK1-wt/EML4-ALK-wt: A (bin A for very high selectivity, ratio>30-fold)

CCn1nnc2c1-c1cnc(N)c(c1)O[C@H](C)c1cc(F)ccc1-c1nn(C)cc1C2 [Example 20, (19R)-3-ethyl-16-fluoro-10,19-dimethyl-20-oxa-3,4,5,10,11,23-hexaazapentacyclo[19.3.1.0^2,^6.0^8,^12.0^13,^18]pentacosa-1(24),2(6),4,8,11,13,15,17,21(25),22-decaen-22-amine]
TPM3-NTRK1-wt/CD74-ROS1-G2032R: A (bin A for very high selectivity, ratio>30-fold) | TPM3-NTRK1-wt/CD74-ROS1-wt: A (bin A for very high selectivity, ratio>30-fold) | TPM3-NTRK1-wt/EML4-ALK-L1196M-G1202R: B (bin B for high selectivity, ratio>10-fold) | TPM3-NTRK1-wt/EML4-ALK-wt: A (bin A for very high selectivity, ratio>30-fold)

C[C@H]1Oc2cc(cnc2N)-c2c(C#N)nn(C)c2Cc2cn(C)nc2-c2ccc(F)cc21 [Example 21, (19R)-22-amino-16-fluoro-5,10,19-trimethyl-20-oxa-4,5,10,11,23-pentaazapentacyclo[19.3.1.0^2,^6.0^8,^12.0^13,^18]pentacosa-1(24),2(6),3,8,11,13,15,17,21(25),22-decaene-3-carbonitrile]
TPM3-NTRK1-wt/CD74-ROS1-G2032R: A (bin A for very high selectivity, ratio>30-fold) | TPM3-NTRK1-wt/CD74-ROS1-wt: A (bin A for very high selectivity, ratio>30-fold) | TPM3-NTRK1-wt/EML4-ALK-L1196M-G1202R: B (bin B for high selectivity, ratio>10-fold) | TPM3-NTRK1-wt/EML4-ALK-wt: A (bin A for very high selectivity, ratio>30-fold)

C[C@H]1Oc2cc(cnc2N)-c2c(cnn2CC(F)F)Cc2cn(C)nc2-c2ccc(F)cc21 [Example 22, (19R)-3-(2,2-difluoroethyl)-16-fluoro-10,19-dimethyl-20-oxa-3,4,10,11,23-pentaazapentacyclo[19.3.1.0^2,^6.0^8,^12.0^13,^18]pentacosa-1(24),2(6),4,8,11,13,15,17,21(25),22-decaen-22-amine]
TPM3-NTRK1-wt/CD74-ROS1-G2032R: A (bin A for very high selectivity, ratio>30-fold) | TPM3-NTRK1-wt/CD74-ROS1-wt: A (bin A for very high selectivity, ratio>30-fold) | TPM3-NTRK1-wt/EML4-ALK-L1196M-G1202R: A (bin A for very high selectivity, ratio>30-fold) | TPM3-NTRK1-wt/EML4-ALK-wt: A (bin A for very high selectivity, ratio>30-fold)

CCc1nnn2c1-c1cnc(N)c(c1)O[C@H](C)c1cc(F)ccc1-c1nn(C)cc1C2 [Example 23, (19R)-3-ethyl-16-fluoro-10,19-dimethyl-20-oxa-4,5,6,10,11,23-hexaazapentacyclo[19.3.1.0^2,^6.0^8,^12.0^13,^18]pentacosa-1(24),2,4,8,11,13,15,17,21(25),22-decaen-22-amine]
TPM3-NTRK1-wt/CD74-ROS1-G2032R: A (bin A for very high selectivity, ratio>30-fold) | TPM3-NTRK1-wt/CD74-ROS1-wt: A (bin A for very high selectivity, ratio>30-fold) | TPM3-NTRK1-wt/EML4-ALK-L1196M-G1202R: C (bin C for moderate selectivity, ratio≥1) | TPM3-NTRK1-wt/EML4-ALK-wt: A (bin A for very high selectivity, ratio>30-fold)

C[C@H]1Oc2cc(cnc2N)-c2c(C#N)nnn2Cc2cn(C)nc2-c2ccc(F)cc21 [Example 24, (19R)-22-amino-16-fluoro-10,19-dimethyl-20-oxa-4,5,6,10,11,23-hexaazapentacyclo[19.3.1.0^2,^6.0^8,^12.0^13,^18]pentacosa-1(24),2,4,8,11,13,15,17,21(25),22-decaene-3-carbonitrile]
TPM3-NTRK1-wt/CD74-ROS1-G2032R: A (bin A for very high selectivity, ratio>30-fold) | TPM3-NTRK1-wt/CD74-ROS1-wt: A (bin A for very high selectivity, ratio>30-fold) | TPM3-NTRK1-wt/EML4-ALK-L1196M-G1202R: C (bin C for moderate selectivity, ratio≥1) | TPM3-NTRK1-wt/EML4-ALK-wt: A (bin A for very high selectivity, ratio>30-fold)

Source: patent US11667649B2, “Heteroaromatic macrocyclic ether chemotherapeutic agents” (Nuvalent, Inc., priority 2020, dated 2023)
